# Where “and” joins values, the source holds several entries; their conditions need not be identical. Equal entries are not always repeated. Where two headings read alike, the source gives them in different places.
# Legend:
# Tulane virus (TV) [1] = tested on: Tulane virus (TV)
# Tulane virus (TV) [2] = tested on: Tulane virus (TV); remark: listed apart in the source
# Tulane virus (TV) [3] = tested on: Tulane virus (TV); remark: listed apart in the source
# TV = details: cited from earlier work
# FCV = details: cited from earlier work
# MNV = details: cited from earlier work
# [4] = tested on: Tulane virus capsid binding to Human Blood Group Antigen (HBGA) receptor
smiles,measurement,setting,value
"CCO [EtOH, ethanol]",detection of virus genome or amplification of virus,Tulane virus (TV) [1],neither virus genome nor amplification of virus was detectable
same,reduction of TV titer,Tulane virus (TV) [2],over 99.5%
same,detection of virus genome or amplification of virus,Tulane virus (TV) [3],neither virus genome nor amplification of virus was detectable
same,EtOH concentration required to exceed 4 D reduction in virus titer,TV,50-70%
same,EtOH concentration required to exceed 4 D reduction in virus titer,FCV,70%
same,EtOH concentration required to exceed 4 D reduction in virus titer,MNV,60%
same,Binding of viral capsid to Human Blood Group Antigen (HBGA),[4],significantly reduced
same,Ct,HuNoV (GII.4 NoV),40.7 ± 1.4
same,Reduction(%),HuNoV (GII.4 NoV),99.3 ± 0.8%
same,completeness of inactivation of HuNoV,HuNoV (GII.4 NoV),not complete
same,reduction in copy number,HuNoV (GII.4 NoV),99.33% and 88.5% and 99.3%
same,reduction in copy numbers,HuNoV (GII.4 NoV),< 3 log
same,ΔCt,HuNoV (GII.4 NoV),9.7

# Source: patent publication US20150093744A1 (priority 2013, published 2015)
